Assay results taken from patent US20070117743A1, “New antitumoral compounds” (priority 2003, published 2007).

Experiments:
Assay type in all cases: cell-based, human
A-549 = test: SRB colorimetric assay of cell growth and viability, A-549; conditions: A-549 cells, 48 hours exposure, SRB; for GI50: read-out: GI50 (growth inhibition at 50%); for CC50: read-out: LC50 (lethal concentration at 50%)
HT-29 = test: SRB colorimetric assay of cell growth and viability, HT-29; conditions: HT-29 cells, 48 hours exposure, SRB; for GI50: read-out: GI50 (growth inhibition at 50%); for CC50: read-out: LC50 (lethal concentration at 50%)
MB-231 = test: SRB colorimetric assay of cell growth and viability, MB-231; conditions: MB-231 cells, 48 hours exposure
Text: The finality of this assay is to interrupt the growth of a “in vitro” tumor cell culture by means a continued exhibition of the cells to the sample to be testing.
A colorimetric type of assay, using sulforhodamine B (SRB) reaction has been adapted for a quantitative measurement of cell growth and viability [following the technique described by Philip Skehan, et al. (1990), New colorimetric cytotoxicity assay for anticancer drug screening, J. Natl. Cancer Inst., 82:1107-1112].
This form of the assay employs 96 well cell culture microplates of 9 mm diameter (Faircloth, 1988; Mosmann, 1983). Most of the cell lines are obtained from American Type Culture Collection (ATCC) derived from different human cancer types.
Cells are maintained in RPMI 1640 10% FBS, supplemented with 0.1 g/l penicillin and 0.1 g/l streptomycin sulfate and then incubated at 37° C., 5% CO2 and 98% humidity. For the experiments, cells were harvested from subconfluent cultures using trypsin and resuspended in fresh medium before plating.
Cells are seeded in 96 well microtiter plates, at 5×10^3 cells per well in aliquots of 195 μL medium, and they are allowed to attach to the plate surface by growing in drug free medium for 18 hours. Afterward, samples are added in aliquots of 5 μL in a ranging from 10 to 10^−8 μg/mL, dissolved in DMSO:EtOH:PBS (0.5:0.5:99). After 48 hours exposure, the antitumor effect are measured by the SRB methodology: cells are fixed by adding 50 μL of cold 50% (wt/vol) trichloroacetic acid (TCA) and incubating for 60 minutes at 4° C. Plates are washed with deionized water and dried. One hundred μL of SRB solution (0.4% wt/vol in 1% acetic acid) is added to each microtiter well and incubated for 10 minutes at room temperature. Unbound SRB is removed by washing with 1% acetic acid. Plates are air dried and bound stain is solubilized with Tris buffer. Optical densities are read on a automated spectrophotometric plate reader at a single wavelength of 490 nm.
The values for mean+/− SD of data from triplicate wells are calculated. Some parameters for cellular responses can be calculated: GI=growth inhibition, TGI=total growth inhibition (cytostatic effect) and LC=cell killing (cytotoxic effect).

## C/C=C1\NC(=O)[C@H](Cc2ccccc2)NC(=O)[C@@H](C(C)C)NC(=O)[C@@H]([C@@H](C)CC)NC(=O)[C@H](NC(=O)[C@H](NC(=O)[C@H](CCCN)NC(=O)[C@H]2CCCN2C(=O)[C@H](NC(=O)[C@@H](NC(=O)[C@@H](NC(=O)[C@H](NC(=O)[C@]23CCC(C)(C)C[C@H]2C2=CC[C@@H]4[C@@]5(C)C[C@@H](O)[C@H](O)C(C)(C)[C@@H]5CC[C@@]4(C)[C@]2(C)CC3)C(C)C)[C@@H](C)O)C(C)C)C(C)C)[C@@H](C)CC)[C@@H](C)OC(=O)[C@H](C(C)C)NC1=O [Compound 101, [AM^14]-KF]
A-549
  TGI (total growth inhibition): 5.49E−06 Molar
  GI50: 5.49 µM
  CC50: 5.49 µM
HT-29
  TGI (total growth inhibition): 4.60E−06 Molar
  GI50: 4.45 µM
  CC50: 4.86 µM
MB-231
  TGI (total growth inhibition): 5.49E−06 Molar

## C/C=C1\NC(=O)[C@H](Cc2ccccc2)NC(=O)[C@@H](C(C)C)NC(=O)[C@@H]([C@@H](C)CC)NC(=O)[C@H](NC(=O)[C@H](NC(=O)[C@H](CCCN)NC(=O)[C@H]2CCCN2C(=O)[C@H](NC(=O)[C@@H](NC(=O)[C@@H](NC(=O)[C@H](NC(=O)[C@]23CCC(C)(C)C[C@H]2C2=CC[C@@H]4[C@@]5(C)CC[C@H](O)C(C)(C)[C@@H]5CC[C@@]4(C)[C@]2(C)CC3)C(C)C)[C@@H](C)O)C(C)C)C(C)C)[C@@H](C)CC)[C@@H](C)OC(=O)[C@H](C(C)C)NC1=O [Compound 102, [AO^14]-KF]
A-549
  TGI (total growth inhibition): 5.54E−06 Molar
  GI50: 4.53 µM
  CC50: 5.54 µM
HT-29
  TGI (total growth inhibition): 5.54E−06 Molar
  GI50: 5.54 µM
  CC50: 5.54 µM
MB-231
  TGI (total growth inhibition): 5.54E−06 Molar

## C/C=C1\NC(=O)[C@H](Cc2ccccc2)NC(=O)[C@@H](C(C)C)NC(=O)[C@@H]([C@@H](C)CC)NC(=O)[C@H](NC(=O)[C@H](NC(=O)[C@H](CCCN)NC(=O)[C@H]2CCCN2C(=O)[C@H](NC(=O)[C@@H](NC(=O)[C@@H](NC(=O)[C@H](N=C(N(C)C)N(C)C)C(C)C)[C@@H](C)O)C(C)C)C(C)C)[C@@H](C)CC)[C@@H](C)OC(=O)[C@H](C(C)C)NC1=O [Compound 103, [[C(═N(CH3)2)^14]-KF]
A-549
  TGI (total growth inhibition): 6.83E−06 Molar
HT-29
  TGI (total growth inhibition): 6.83E−06 Molar
MB-231
  TGI (total growth inhibition): 6.83E−06 Molar
